This is an account of results in US8575156B2, “Cyclic inhibitors of 11β-hydroxysteroid dehydrogenase 1” (Vitae Pharmaceuticals, Inc., priority 2007, dated 2013).

Read-outs that look alike come from different tables or passages of the source.

The target of assay [1] is T1, 11β-HSD1 (Homo sapiens, UniProt P28845). Description: biochemical. Conditions: for inhibition at 0.1111 µM: read-out: Average % inhibition at 111.1 nM, Biological Test Example 1, 111.1 nM compound; for IC50: IC50 Range, Biological Test Example 1, microsomes from CHO cells overexpressing human 11β-HSD1; for inhibition at 0.1 µM: read-out: Average % inhibition at 100 nM, Biological Test Example 1, 100 nM compound.
T1 sequence (P28845 whole entry): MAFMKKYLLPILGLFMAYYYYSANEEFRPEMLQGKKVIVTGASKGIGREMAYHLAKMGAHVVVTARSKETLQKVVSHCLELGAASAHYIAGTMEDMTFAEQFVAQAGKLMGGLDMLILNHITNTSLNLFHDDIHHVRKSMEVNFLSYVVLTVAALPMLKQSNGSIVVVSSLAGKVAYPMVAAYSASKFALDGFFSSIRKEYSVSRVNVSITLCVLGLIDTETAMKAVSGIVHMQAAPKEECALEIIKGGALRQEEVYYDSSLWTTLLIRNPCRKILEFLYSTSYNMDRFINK

Assay [2] deals with T1, 11β-HSD1. To be noted: for IC50: read-out: IC50 Range.
The mark [3] stands for this setting: Biological Test Example 1, 100 nM compound, 0.1 µM.
Setting [4] is: Biological Test Example 1, microsomes from CHO cells overexpressing human 11β-HSD1.
[5] abbreviates: Biological Test Example 1, 111.1 nM compound, 0.1111 µM.
The mark [6] stands for this setting: Biological Test Example 1, 100 nM, 0.1 µM.

Take `C[C@@H](c1ccc(-c2ccc(F)cc2F)cc1)N1CC[C@](CC(O)CO)(c2ccc(F)cc2)OC1=O` (single isomer, unassigned) [EXAMPLE 52 Isomer 2]: the inhibition at 0.1111 µM on 11β-HSD1 [1] turned out to be 97%. For the same compound, at 11β-HSD1 [2] (setting [3]), the “Average % inhibition at 100 nM” value came out at 90.8%. On 11β-HSD1 [2] (setting [4]), the IC50 was less than 0.1 µM.
For the compound `O=C1OC(CCO)(c2ccccc2)CCN1c1ccc(F)c(-c2ccc(F)cc2)c1` (single isomer, unassigned) [EXAMPLE 96 Isomer 1], at 11β-HSD1 [1], the IC50 was less than 0.1 µM and the inhibition at 0.1 µM stood at 88.3%. Further, the “Average % inhibition at 111.1 nM” value at 11β-HSD1 [2] (setting [5]) amounted to 98.5%.
Consider `O=C1OC(CCO)(c2ccccc2)CCN1c1ccc(F)c(-c2ccc(F)cc2)c1` (single isomer, unassigned) [EXAMPLE 96 Isomer 2], for which the IC50 against 11β-HSD1 [1] was more than 1 µM. For the same compound, the “Average % inhibition at 111.1 nM” value on 11β-HSD1 [2] (setting [5]) is listed as 9.7%.
Consider `O=C1OC(CCO)(c2ccccc2F)CCN1c1cccc(-c2ccc(F)cc2)n1` (single isomer, unassigned) [EXAMPLE 104 Isomer 1], for which the IC50 at 11β-HSD1 [1] lay in the range of 0.1 to 1 µM. In addition, the “Average % inhibition at 111.1 nM” value on 11β-HSD1 [2] (setting [5]) was found to be 44.3%.
On the same counts, the results for `O=C1OC(CCO)(c2ccccc2F)CCN1c1cccc(-c2ccc(F)cc2)n1` (single isomer, unassigned) [EXAMPLE 104 Isomer 2] are less than 0.1 µM and 98.1%.
On to `C[C@@H](c1ccccc1)N1CCC(CO)(c2ccc(F)cc2)OC1=O` (single isomer, unassigned) [EXAMPLE 114 Isomer 1], for which, at 11β-HSD1 [1], the IC50 was more than 1 µM. At 11β-HSD1 [2] (setting [3]), the “Average % inhibition at 100 nM” value came to 17.4%.
Turning to `C[C@@H](c1ccccc1)N1CCC(CO)(c2ccc(F)cc2)OC1=O` (single isomer, unassigned) [EXAMPLE 114 Isomer 2], the half-inhibitory concentration (IC50) against 11β-HSD1 [1] is less than 0.1 µM. Besides, at 11β-HSD1 [2] (setting [3]), the “Average % inhibition at 100 nM” value was determined as 66.6%.
For `C=CCC1(c2ccc(F)cc2)CCN([C@@H](C)c2ccc(Br)cn2)C(=O)O1` (single isomer, unassigned) [EXAMPLE 128 Isomer 1], at 11β-HSD1 [1], the IC50 fell in the range of 0.1 to 1 µM and the inhibition at 0.1 µM is 26.1%. Further, at 11β-HSD1 [2] (setting [5]), the “Average % inhibition at 111.1 nM” value stood at 27.5%.
Turning to `C=CCC1(c2ccc(F)cc2)CCN([C@@H](C)c2ccc(Br)cn2)C(=O)O1` (single isomer, unassigned) [EXAMPLE 128 Isomer 2], the IC50 against 11β-HSD1 [1] is more than 1 µM. Also, the “Average % inhibition at 111.1 nM” value on 11β-HSD1 [2] (setting [5]) stood at 6.5%.
`C=CCC1(c2ccc(F)cc2)CCN([C@@H](CC)c2ccc(Br)cc2)C(=O)O1` (single isomer, unassigned) [EXAMPLE 130 Isomer 2]: the inhibition at 0.1111 µM on 11β-HSD1 [1] amounted to 87.7%. Also, the half-inhibitory concentration (IC50) on 11β-HSD1 [2] (setting [4]) is less than 0.1 µM.
Regarding `CC[C@@H](c1ccc(Br)cc1)N1CCC(CCO)(c2ccc(F)cc2)OC1=O` (single isomer, unassigned) [EXAMPLE 143 Isomer 2], on 11β-HSD1 [1], the inhibition at 0.1 µM was 95.4%. Also, the concentration for half-maximal inhibition (IC50) at 11β-HSD1 [2] (setting [4]) is less than 0.1 µM.
In the case of `C[C@@H](c1ccc(Br)cc1)N1CC[C@](CC(O)CO)(c2ccc(F)cc2)OC1=O` (single isomer, unassigned) [EXAMPLE 144 Isomer 2], the inhibition at 0.1 µM on 11β-HSD1 [1] was determined as 95.3%. In addition, the “Average % inhibition at 111.1 nM” value on 11β-HSD1 [2] (setting [5]) was determined as 96.6%. Besides, the half-maximal inhibitory concentration (IC50) on 11β-HSD1 [2] (setting [4]) is less than 0.1 µM.
In the case of `C=CCC1(c2cccs2)CCN([C@@H](C)c2ccc(Br)cc2)C(=O)O1` (single isomer, unassigned) [EXAMPLE 157 Isomer 2], the inhibition at 0.1111 µM on 11β-HSD1 [1] amounted to 90.7%. In addition, the “Average % inhibition at 100 nM” value at 11β-HSD1 [2] (setting [3]) is on record as 92.9%. The IC50 at 11β-HSD1 [2] (setting [4]) was less than 0.1 µM.
On to `C=CCC1(c2cccs2)CCN([C@@H](C)c2ccc(-c3ccc(F)cc3)cc2)C(=O)O1` (single isomer, unassigned) [EXAMPLE 160 Isomer 2], for which, at 11β-HSD1 [1], the inhibition at 0.1 µM was found to be 95.9%. Further, the “Average % inhibition at 111.1 nM” value on 11β-HSD1 [2] (setting [5]) turned out to be 95.2%. Also, on 11β-HSD1 [2] (setting [4]), the IC50 is less than 0.1 µM.
Consider `COc1ccc([C@H](C)N2CC[C@](CC(O)CO)(c3ccc(F)cc3)OC2=O)cc1` (single isomer, unassigned) [EXAMPLE 206 Isomer 2], for which the “Average % inhibition at 100 nM” value at 11β-HSD1 [2] (setting [3]) stood at 85.9%. The IC50 at 11β-HSD1 [2] (setting [4]) is less than 0.1 µM.
Taken in the same sequence, the figures for `CC(C)C1(CCCO)CCN([C@@H](C)c2ccc(-c3ccc(F)cc3F)cc2)C(=O)O1` (single isomer, unassigned) [EXAMPLE 212 Isomer 2] were 82.6% and less than 0.1 µM.
Taken in the same sequence, the figures for `CC(O)C[C@]1(c2ccccc2)CCN([C@@H](C)c2ccc(-c3ccc(F)cc3)cc2)C(=O)O1` (single isomer, unassigned) [EXAMPLE 224 Isomer 2] were 95.6% and less than 0.1 µM.
On to `C[C@@H](c1ccc(Br)cc1)N1CCC(CCCO)(c2ccc(F)cc2)OC1=O` (single isomer, unassigned) [EXAMPLE 227 Isomer 2], for which the half-maximal inhibitory concentration (IC50) at 11β-HSD1 [2] (setting [4]) is less than 0.1 µM.
With `C[C@@H](c1ccc(-c2ccc(F)cc2F)cc1)N1CCC(CCO)(c2cccs2)OC1=O` (single isomer, unassigned) [EXAMPLE 233 Isomer 2], the “Average % inhibition at 100 nM” value at 11β-HSD1 [2] (setting [3]) turned out to be 64.1%. Also, the concentration for half-maximal inhibition (IC50) at 11β-HSD1 [2] (setting [4]) is less than 0.1 µM.
For the compound `CC[C@@H](c1ccc(Br)cc1)N1CC[C@](CC(O)CO)(c2ccccc2)OC1=O` (single isomer, unassigned) [EXAMPLE 239 Isomer 2], the “Average % inhibition at 100 nM” value at 11β-HSD1 [2] (setting [3]) was 89.5%. At 11β-HSD1 [2] (setting [4]), the half-maximal inhibitory concentration (IC50) was less than 0.1 µM.
Taken in the same sequence, the figures for `CC[C@@H](c1ccc(Br)cc1)N1CC[C@](CC(O)CO)(c2ccc(F)cc2)OC1=O` (single isomer, unassigned) [EXAMPLE 255 Isomer 2] were 89.3% and less than 0.1 µM.
Turning to `C[C@@H](c1ccc(-c2ccc(F)cc2)cc1)N1CC[C@](CC(O)CNS(C)(=O)=O)(c2ccc(F)cc2)OC1=O` (single isomer, unassigned) [EXAMPLE 277 Isomer 2], the “Average % inhibition at 100 nM” value on 11β-HSD1 [2] (0.1 µM) was determined as 65.6%. Further, at 11β-HSD1 [2], the IC50 is less than 0.1 µM.
For the compound `C[C@@H](c1ccc(-c2ccc(F)cc2)cc1)N1CC[C@](CC(O)CN(C)S(C)(=O)=O)(c2ccc(F)cc2)OC1=O` (single isomer, unassigned) [EXAMPLE 278 Isomer 2], at 11β-HSD1 [2] (setting [3]), the “Average % inhibition at 100 nM” value is given as 65.5%. Besides, the IC50 on 11β-HSD1 [2] (setting [4]) is less than 0.1 µM.
Regarding `C=CCCC1(c2ccc(F)cc2)CCN([C@@H](C)c2ccc(OC(F)F)cc2)C(=O)O1` (single isomer, unassigned) [EXAMPLE 323 Isomer 2], the “Average % inhibition at 100 nM” value on 11β-HSD1 [2] (0.1 µM) came out at 100.9%. Also, the half-maximal inhibitory concentration (IC50) on 11β-HSD1 [2] (setting [4]) is less than 0.1 µM.
For the compound `C[C@@H](c1ccc(Br)cc1)N1CCC(CCCO)(C(C)(C)C)OC1=O` (single isomer, unassigned) [EXAMPLE 335 Isomer 2], on 11β-HSD1 [2] (setting [6]), the “Average % inhibition at 100 nM” value was determined as 96.7%. Besides, the half-inhibitory concentration (IC50) on 11β-HSD1 [2] (setting [4]) was less than 0.1 µM.
For `C[C@@H](c1ccc(-c2ccc(F)cc2F)cc1)N1CCC(CCO)(C(C)(C)C)OC1=O` (single isomer, unassigned) [EXAMPLE 336 Isomer 2], the “Average % inhibition at 100 nM” value on 11β-HSD1 [2] (setting [6]) stood at 94.6%. Besides, at 11β-HSD1 [2] (setting [4]), the IC50 is less than 0.1 µM.
On the same counts, the results for `C[C@@H](c1ccc(Br)cc1)N1CCC(CCO)(c2ccc(F)cc2F)OC1=O` (single isomer, unassigned) [EXAMPLE 365 Isomer 2] are 61.1% and less than 0.1 µM.
With `CC(O)C[C@]1(c2ccc(F)cc2)CCN([C@@H](C)c2ccc(Br)cc2)C(=O)O1` (single isomer, unassigned) [EXAMPLE 371 Isomer 2], the “Average % inhibition at 100 nM” value on 11β-HSD1 [2] (setting [6]) came to 97.4%. Moreover, on 11β-HSD1 [2] (setting [4]), the half-maximal inhibitory concentration (IC50) was less than 0.1 µM.
In the case of `CC(O)CC[C@]1(c2ccc(F)cc2)CCN([C@@H](C)c2ccc(Cl)cc2)C(=O)O1` (single isomer, unassigned) [EXAMPLE 383 Isomer 2], the “Average % inhibition at 100 nM” value at 11β-HSD1 [2] (setting [6]) was 95.3%. Moreover, on 11β-HSD1 [2] (setting [4]), the IC50 was less than 0.1 µM.
Taken in the same sequence, the figures for `CC(O)C[C@]1(c2ccc(F)cc2)CCN([C@@H](C)c2ccc(C(F)(F)F)cc2)C(=O)O1` (single isomer, unassigned) [EXAMPLE 388 Isomer 2] were 94.7% and less than 0.1 µM.
Consider `CC(O)CC[C@]1(c2ccc(F)cc2)CCN([C@@H](C)c2ccc(F)cc2)C(=O)O1` (single isomer, unassigned) [EXAMPLE 411 Isomer 2], for which the “Average % inhibition at 100 nM” value at 11β-HSD1 [2] (setting [6]) is 93.1%. Further, the IC50 on 11β-HSD1 [2] (setting [4]) is less than 0.1 µM.
For `CC(C[C@]1(c2ccc(F)cc2)CCN([C@@H](C)c2ccc(Br)cc2)C(=O)O1)C(N)=O` (single isomer, unassigned) [EXAMPLE 523 Isomer 2], the “Average % inhibition at 100 nM” value on 11β-HSD1 [2] (setting [6]) is 85.4%. In addition, the IC50 on 11β-HSD1 [2] (setting [4]) is less than 0.1 µM.
On the same counts, the results for `CC(CO)C[C@]1(c2ccc(F)cc2)CCN([C@@H](C)c2ccc(Br)cc2)C(=O)O1` (single isomer, unassigned) [EXAMPLE 577 Isomer 2] are 94.7% and less than 0.1 µM.
As to “(R)-3-((S)-1-(2′,4′-difluorobiphenyl-4-yl)propyl)-6-(4-fluorophenyl)-6-(2-hydroxyethyl)-1,3-oxazinan-2-one [EXAMPLE 175 Isomer 2]”, at 11β-HSD1 [2], the “Average % inhibition at 111.1 nM” value is 25.8% and the concentration for half-maximal inhibition (IC50) was in the range of 0.1 to 1 µM.
As to “(R)-6-(3-hydroxypropyl)-3-((S)-1-(4-methoxyphenyl)ethyl)-6-phenyl-1,3-oxazinan-2-one [EXAMPLE 282 Isomer 1]”, on 11β-HSD1 [2], the “Average % inhibition at 100 nM” value was 94.0% and the IC50 is less than 0.1 µM.
In the case of “(S)-3-((S)-1-(2′,4′-difluorobiphenyl-4-yl)propyl)-6-(4-fluorophenyl)-6-(2-hydroxyethyl)-1,3-oxazinan-2-one [EXAMPLE 175 Isomer 1]”, on 11β-HSD1 [2], the “Average % inhibition at 111.1 nM” value is listed as 93.7% and the 50% inhibitory concentration (IC50) is less than 0.1 µM.
Take “(S)-6-(3-hydroxypropyl)-3-((S)-1-(4-methoxyphenyl)ethyl)-6-phenyl-1,3-oxazinan-2-one [EXAMPLE 282 Isomer 2]”: at 11β-HSD1 [2], the “Average % inhibition at 100 nM” value turned out to be 77.8% and the 50% inhibitory concentration (IC50) is less than 0.1 µM.

As a reminder, the inhibition is how much of the control response was suppressed. One may read the IC50 as the concentration that inhibits the measured activity by half.
